Measurements as given in patent US20240407361A1, “ORGANOSULFUR COMPOUNDS AS PLANT BIOSTIMULANTS” (AHV International B.V., priority 2021, published 2024).

What was measured:
[1] = tested on: Lettuce Lactuca sativa “volare”; assay: Organosulfur compounds on lettuce, seed drench (Example 9); assay type: in vivo; conditions: for Added harvest (weight) per plant compared to control (%) / Root formation (%) compared to control / Relative fresh weight/plant compared to control (%): seed drench, 1000× diluted emulsion; for Root formation (%) compared to control: control = 100; for Relative fresh weight/plant compared to control (%): control = emulsifier solution = 100; for Harvest: Fresh weight/plant: seeds drenched 10 minutes in 1000× diluted emulsion, 21 °C
Method: (§1) Experimental design. The bio-stimulatory effects of organosulfur compounds was tested on lettuce and sweet pepper (Capsicum annuum “Ritmico”). The tested compounds include di-n-propyl disulfide (GAS 629-19-6), di-n-propyl thiosulfonate (i.e., PTSO, CAS 1113-13-9), di-methyl thiosulfonate (GAS 2949-92-0), and di-phenyl thiosulfonate (Gas 1212-08-4). Di-methyl thiosulfonate and di-phenyl thiosulfonate were ordered from Adrich-Sigma. PTSO was purified as described in example 1. In order to obtain a stable and homogenous emulsion, the compounds were dissolved into an emulsifier solution (table 25) to assure that the crops are supplied with the defined solution. […] As examples herein, “PTSO Composition 5.2” refers to an agricultural composition comprising 5.2% PTSO and further comprises 59% emulsifier (propylene glycol and glyceryl polyethyleneglycol ricinoleate). “PTSO composition 5.2 Yuka” in an agricultural composition comprising 5.2% PTSO and 90.2% Yuka extract. “PTSO composition 5.2 Tween” in an agricultural composition comprising 5.2% PTSO, 30.1% Tween, 30.1% DMSO and 30% water.
(§2) The dosage of the test compounds was standardized on base of the molar dosage and the same molar dosage was administered as PTSO. Emulsions were prepared by adding the required amount of the compounds as indicated in table 25 in 100 ml volumes of 50% tween 80 and 50 ml DMSO. Hereafter, the volumes were supplemented to a final volume of 250 ml with the same mixture and incubation took place at an orbital shaker at 37° C. (30 minutes, 250 rpm).
Before seeding, the seeds of lettuce were drenched into 1000× diluted emulsions as indicated in table 25 and incubated for 10 minutes. Each treatment was performed in 4-fold. In table 26 the growth settings of lettuce and sweet peppers are summarized and in table 27 a summary of the realized growth conditions and crop harvest is presented of lettuce.

[2] = tested on: sweet pepper (Capsicum annuum “Ritmico”); assay: Organosulfur compounds on sweet pepper, drip (Example 9); assay type: in vivo; conditions: no fruits yet, preliminary
Method: as §1, §2

## CSS(C)(=O)=O [Di-methyl thiosulfonate, di-methyl thiosulfonate]
[1]
  Added harvest (weight) per plant compared to control (%): 20%
  Root formation (%) compared to control: 115%
  Relative fresh weight/plant compared to control (%): 120%
  Harvest: Fresh weight/plant: 1.96
[2]
  Size increase over control (%): 6.1%

## O=S(=O)(Sc1ccccc1)c1ccccc1 [Di-phenyl thiosulfonate, di-phenyl thiosulfonate]
[1]
  Added harvest (weight) per plant compared to control (%): 3%
  Root formation (%) compared to control: 93.9%
  Relative fresh weight/plant compared to control (%): 103%
  Harvest: Fresh weight/plant: 1.68
[2]
  Size increase over control (%): 2.8%

## CCCSSCCC [Di-propyl disulfide]
[1]
  Added harvest (weight) per plant compared to control (%): 10%
  Root formation (%) compared to control: 109%
  Relative fresh weight/plant compared to control (%): 110%
  Harvest: Fresh weight/plant: 1.80
[2]
  Size increase over control (%): 2.8%

## CCCSS(=O)(=O)CCC [PTSO, di-n-propyl thiosulfonate]
[1]
  Added harvest (weight) per plant compared to control (%): 13%
  Root formation (%) compared to control: 110%
  Relative fresh weight/plant compared to control (%): 113%
  Harvest: Fresh weight/plant: 1.84
[2]
  Size increase over control (%): 4.2%
